Measurements from PubChem BioAssay AID1277 (The Scripps Research Institute Molecular Screening Center, 2008).
The source made the active and inactive calls. No rule for the calls is given here.

Each compound was assayed against Neuropeptide Y receptor type 1 (Homo sapiens) (UniProt P25929) (assay: IC50 of human NPY-Y1 blockers – cell-based, dose response (AID 1277)). Conditions: NPY-Y1 expressing cells, antagonist mode.
Neuropeptide Y receptor type 1 (Homo sapiens), sequence (P25929 whole entry, looked up): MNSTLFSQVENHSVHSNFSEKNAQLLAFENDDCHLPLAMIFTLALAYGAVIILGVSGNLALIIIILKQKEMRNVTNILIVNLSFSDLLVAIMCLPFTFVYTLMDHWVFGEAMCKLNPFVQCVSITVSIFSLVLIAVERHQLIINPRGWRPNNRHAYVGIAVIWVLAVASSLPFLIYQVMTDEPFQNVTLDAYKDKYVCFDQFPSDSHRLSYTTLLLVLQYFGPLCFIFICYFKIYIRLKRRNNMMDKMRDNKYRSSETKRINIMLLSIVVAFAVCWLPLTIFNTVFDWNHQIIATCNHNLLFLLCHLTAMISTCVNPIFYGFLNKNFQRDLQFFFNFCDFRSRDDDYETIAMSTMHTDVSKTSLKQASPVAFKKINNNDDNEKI

IC50, inactive:
Cc1cc(C(=O)CSc2nc3ccccc3c(=O)n2C)c(C)n1CC1CCCO1 (centres undefined) < 35 µM, COc1cccc(Oc2cn[nH]c2-c2ccc(O)cc2O)c1 < 35 µM, CC(C)CC(c1nnnn1C1CCCC1)N1CCN(c2ccccc2F)CC1 (centres undefined) < 35 µM, Cn1ccnc1C1CCCCN1Cc1nc(-c2ccc3c(c2)OCO3)no1 (centres undefined) < 35 µM
